What follows are molecules tested on HBV (assay: HBV inhibition assay in HepAD38 cells (extracellular HBV DNA by direct qPCR)). Conditions: Hepatitis B virus, 8-point dose-response curve, 96 hours, read-out: HBV inh EC50.
Assay type: cell-based
How it was run: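 HepAD38 cells (HepG2, tetracycline-off HBV) induced in tetracycline-free medium, treated 96 h at 37 °C with compound, 0.5% DMSO. Extracellular HBV DNA quantified by direct SYBR qPCR of lysed supernatant, as % of untreated; EC50 from 8-point 1:2 curves; cytotoxicity by CellTiter-Blue.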

`CC1Nc2ccc(C(=O)Nc3cc(F)c(F)c(F)c3)cc2S(=O)(=O)N1` (centres unmarked) [Example E21, 3-methyl-N-(3,4,5-trifluorophenyl)-3,4-dihydro-2H-benzo[e][1,2,4]thiadiazine-7-carboxamide 1,1-dioxide] and `O=C(Nc1cc(F)c(F)c(F)c1)c1ccc2c(c1)S(=O)(=O)NC(c1nccs1)N2` (centres unmarked) [Example E49, 3-(thiazol-2-yl)-N-(3,4,5-trifluorophenyl)-3,4-dihydro-2H-benzo[e][1,2,4]thiadiazine-7-carboxamide 1,1-dioxide] cannot be ordered by EC50: less than 1000 nM for the first, less than 1000 nM for the second.

`CC1Nc2cc(Cl)c(C(=O)Nc3cc(F)c(F)c(F)c3)cc2S(=O)(=O)N1` (centres unmarked) [Example E10, 6-chloro-3-methyl-N-(3,4,5-trifluorophenyl)-3,4-dihydro-2H-benzo[e][1,2,4]thiadiazine-7-carboxamide 1,1-dioxide] and `O=C(Nc1cc(F)c(F)c(F)c1)c1cc2c(cc1F)NCNS2(=O)=O` [Example E71, 6-fluoro-N-(3,4,5-trifluorophenyl)-3,4-dihydro-2H-benzo[e][1,2,4]thiadiazine-7-carboxamide 1,1-dioxide] cannot be ordered by EC50: less than 1000 nM for the first, less than 1000 nM for the second.

For `Cn1cncc1C1Nc2ccc(C(=O)Nc3cc(F)c(F)c(F)c3)cc2S(=O)(=O)N1` (centres unmarked) [Example E37, 3-(1-methyl-1H-imidazol-5-yl)-N-(3,4,5-trifluorophenyl)-3,4-dihydro-2H-benzo[e][1,2,4]thiadiazine-7-carboxamide 1,1-dioxide], the EC50 was less than 1000 nM.

Same assay, conditions: Hepatitis B virus, compound at 0.5 µM, 96 hours, relative to non-treated reference, read-out: Anti HBV Activity (conc µM)

`O=C(Nc1cc(F)c(F)c(F)c1)c1ccc2c(c1)S(=O)(=O)NC1(N2)C(=O)Nc2ccccc21` (racemic) [Example E56, 2'-oxo-N-(3,4,5-trifluorophenyl)-2H,4H-spiro[benzo[e][1,2,4]thiadiazine-3,3'-indoline]-7-carboxamide 1,1-dioxide] and `O=C(Nc1cc(F)c(F)c(F)c1)c1ccc2c(c1)S(=O)(=O)NC1(N2)C(=O)Nc2ncccc21` (centres unmarked) [Example E57, 2'-oxo-N-(3,4,5-trifluorophenyl)-1',2'-dihydro-2H,4H-spiro[benzo[e][1,2,4]thiadiazine-3,3'-pyrrolo[2,3-b]pyridine]-7-carboxamide 1,1-dioxide] cannot be ordered by inhibition at 0.5 µM: greater than 50% for the first, greater than 50% for the second.

Going from `CC1(c2cnccn2)Nc2ccc(C(=O)Nc3cc(F)c(F)c(F)c3)cc2S(=O)(=O)N1` (centres unmarked) [Example E55, 3-methyl-3-(pyrazin-2-yl)-N-(3,4,5-trifluorophenyl)-3,4-dihydro-2H-benzo[e][1,2,4]thiadiazine-7-carboxamide 1,1-dioxide] to `O=C(Nc1cc(F)c(F)c(F)c1)c1ccc2c(c1)S(=O)(=O)N([C@H]1CC[C@H](O)CC1)CN2` [Example E58, trans-2-(4-hydroxycyclohexyl)-N-(3,4,5-trifluorophenyl)-3,4-dihydro-2H-benzo[e][1,2,4]thiadiazine-7-carboxamide 1,1-dioxide], the inhibition at 0.5 µM falls from greater than 50% to less than 50%.

`O=C(Nc1ccc(F)c(Cl)c1)c1ccc2c(c1)S(=O)(=O)NCN2` [Example E65, N-(3-chloro-4-fluorophenyl)-3,4-dihydro-2H-benzo[e][1,2,4]thiadiazine-7-carboxamide 1,1-dioxide] showed an inhibition at 0.5 µM greater than 50%.

Same assay, conditions: Hepatitis B virus, compound at 1 µM, 96 hours, relative to non-treated reference, read-out: Anti HBV Activity (conc µM)

`Cc1nc(C)c(C2Nc3ccc(C(=O)Nc4ccc(F)c(F)c4)cc3S(=O)(=O)N2)o1` (centres unmarked) [Example E38, N-(3,4-difluorophenyl)-3-(2,4-dimethyloxazol-5-yl)-3,4-dihydro-2H-benzo[e][1,2,4]thiadiazine-7-carboxamide 1,1-dioxide] and `O=C(Nc1ccc(F)c(F)c1)c1ccc2c(c1)S(=O)(=O)NC(c1cccnc1)N2` (centres unmarked) [Example E47, N-(3,4-difluorophenyl)-3-(pyridin-3-yl)-3,4-dihydro-2H-benzo[e][1,2,4]thiadiazine-7-carboxamide 1,1-dioxide] cannot be ordered by inhibition at 1 µM: greater than 50% for the first, greater than 50% for the second.

`O=C(Nc1cc(F)c(F)c(F)c1)c1cc2c(cc1Cl)NC(c1nccs1)NS2(=O)=O` (centres unmarked) [Example E36, 6-chloro-3-(thiazol-2-yl)-N-(3,4,5-trifluorophenyl)-3,4-dihydro-2H-benzo[e][1,2,4]thiadiazine-7-carboxamide 1,1-dioxide] and `O=C(Nc1cc(F)c(F)c(F)c1)c1ccc2c(c1)S(=O)(=O)NC(c1cncs1)N2` (centres unmarked) [Example E40, 3-(thiazol-5-yl)-N-(3,4,5-trifluorophenyl)-3,4-dihydro-2H-benzo[e][1,2,4]thiadiazine-7-carboxamide 1,1-dioxide] cannot be ordered by inhibition at 1 µM: greater than 50% for the first, greater than 50% for the second.

`CN1C=NS(=O)(=O)c2cc(C(=O)Nc3cc(F)c(F)c(F)c3)c(F)cc21` [Example E73, 6-fluoro-4-methyl-N-(3,4,5-trifluorophenyl)-4H-benzo[e][1,2,4]thiadiazine-7-carboxamide 1,1-dioxide] and `O=C(Nc1cc(F)c(F)c(F)c1)c1cc2c(cc1F)N=CNS2(=O)=O` [Example E68, 6-fluoro-N-(3,4,5-trifluorophenyl)-2H-benzo[e][1,2,4]thiadiazine-7-carboxamide 1,1-dioxide] cannot be ordered by inhibition at 1 µM: less than 50% for the first, less than 50% for the second.

Going from `NC1=Nc2ccc(C(=O)Nc3cc(F)c(F)c(F)c3)cc2S(=O)(=O)N1` [Example E69, 3-amino-N-(3,4,5-trifluorophenyl)-2H-benzo[e][1,2,4]thiadiazine-7-carboxamide 1,1-dioxide] to `CN1C(=O)Nc2ccc(C(=O)Nc3cc(F)c(F)c(F)c3)cc2S1(=O)=O` [Example E76, 2-methyl-3-oxo-N-(3,4,5-trifluorophenyl)-3,4-dihydro-2H-benzo[e][1,2,4]thiadiazine-7-carboxamide 1,1-dioxide], the inhibition at 1 µM rises from less than 50% to greater than 50%.

`N#Cc1cc(NC(=O)c2ccc3c(c2)S(=O)(=O)NCN3)ccc1F` [Example E91, N-(3-cyano-4-fluorophenyl)-3,4-dihydro-2H-benzo[e][1,2,4]thiadiazine-7-carboxamide 1,1-dioxide] and `O=C(Nc1ccc(F)c(F)c1)c1ccc2c(c1)S(=O)(=O)NC=N2` [Example E66, N-(3,4-difluorophenyl)-2H-benzo[e][1,2,4]thiadiazine-7-carboxamide 1,1-dioxide] cannot be ordered by inhibition at 1 µM: less than 50% for the first, less than 50% for the second.

`O=C(Nc1cc(F)c(F)c(F)c1)c1ccc2c(c1)S(=O)(=O)NC(c1cccnc1)N2` (centres unmarked) [Example E48, 3-(pyridin-3-yl)-N-(3,4,5-trifluorophenyl)-3,4-dihydro-2H-benzo[e][1,2,4]thiadiazine-7-carboxamide 1,1-dioxide] and `O=C(Nc1cc(F)c(F)c(F)c1)c1ccc2c(c1)S(=O)(=O)NC(c1ccccn1)N2` (centres unmarked) [Example E44, 3-(pyridin-2-yl)-N-(3,4,5-trifluorophenyl)-3,4-dihydro-2H-benzo[e][1,2,4]thiadiazine-7-carboxamide 1,1-dioxide] cannot be ordered by inhibition at 1 µM: greater than 50% for the first, greater than 50% for the second.

`O=C(Nc1cc(F)c(F)c(F)c1)c1ccc2c(c1)S(=O)(=O)N(CCO)CN2` [Example E62, 2-(2-hydroxyethyl)-N-(3,4,5-trifluorophenyl)-3,4-dihydro-2H-benzo[e][1,2,4]thiadiazine-7-carboxamide 1,1-dioxide] and `O=C(Nc1cc(F)c(F)c(F)c1)c1ccc2c(c1)S(=O)(=O)N(C1CC1)C(=O)N2` [Example E79, 2-cyclopropyl-3-oxo-N-(3,4,5-trifluorophenyl)-3,4-dihydro-2H-benzo[e][1,2,4]thiadiazine-7-carboxamide 1,1-dioxide] cannot be ordered by inhibition at 1 µM: less than 50% for the first, less than 50% for the second.

`O=C(Nc1cc(F)c(F)c(F)c1)c1ccc2c(c1)S(=O)(=O)NCC(CO)O2` (centres unmarked) [Example E139, 4-(hydroxymethyl)-N-(3,4,5-trifluorophenyl)-3,4-dihydro-2H-benzo[b][1,4,5]oxathiazepine-8-carboxamide 1,1-dioxide] and `O=C(Nc1cc(F)c(F)c(F)c1)c1ccc2c(c1)S(=O)(=O)NC1(COC1)CO2` [Example E140, N-(3,4,5-trifluorophenyl)-2H,4H-spiro[benzo[b][1,4,5]oxathiazepine-3,3'-oxetane]-8-carboxamide 1,1-dioxide] cannot be ordered by inhibition at 1 µM: less than 50% for the first, less than 50% for the second.

`O=C(Nc1cc(F)c(F)c(F)c1)c1ccc2c(c1)S(=O)(=O)NC(c1cnns1)N2` (centres unmarked) [Example E45, 3-(1,2,3-thiadiazol-5-yl)-N-(3,4,5-trifluorophenyl)-3,4-dihydro-2H-benzo[e][1,2,4]thiadiazine-7-carboxamide 1,1-dioxide] and `CC(=O)NCC1Nc2ccc(C(=O)Nc3cc(F)c(F)c(F)c3)cc2S(=O)(=O)N1` (centres unmarked) [Example E30, 3-(acetamidomethyl)-N-(3,4,5-trifluorophenyl)-3,4-dihydro-2H-benzo[e][1,2,4]thiadiazine-7-carboxamide 1,1-dioxide] cannot be ordered by inhibition at 1 µM: greater than 50% for the first, greater than 50% for the second.

`CC1(c2ccc(Cl)cn2)Nc2ccc(C(=O)Nc3cc(F)c(F)c(F)c3)cc2S(=O)(=O)N1` (centres unmarked) [Example E53, 3-(5-chloropyridin-2-yl)-3-methyl-N-(3,4,5-trifluorophenyl)-3,4-dihydro-2H-benzo[e][1,2,4]thiadiazine-7-carboxamide 1,1-dioxide] and `O=C(Nc1cc(F)c(F)c(F)c1)c1ccc2c(c1)S(=O)(=O)N([C@H]1CC[C@H](O)CC1)C(=O)N2` [Example E80, trans-2-(4-hydroxycyclohexyl)-3-oxo-N-(3,4,5-trifluorophenyl)-3,4-dihydro-2H-benzo[e][1,2,4]thiadiazine-7-carboxamide 1,1-dioxide] cannot be ordered by inhibition at 1 µM: greater than 50% for the first, greater than 50% for the second.

`O=C(Nc1cc(F)c(F)c(F)c1)c1ccc2c(c1)S(=O)(=O)N1CCCC[C@@H]1CO2` [Example E112, (R)-N-(3,4,5-trifluorophenyl)-1,2,3,4,12,12a-hexahydrobenzo[b]pyrido[1,2-e][1,4,5]oxathiazepine-8-carboxamide 6,6-dioxide] and `CN1CC2CCCCN2S(=O)(=O)c2cc(C(=O)Nc3cc(F)c(F)c(F)c3)ccc21` (centres unmarked) [Example E102, 11-methyl-N-(3,4,5-trifluorophenyl)-1,3,4,11,12,12a-hexahydro-2H-benzo[f]pyrido[1,2-b][1,2,5]thiadiazepine-8-carboxamide 6,6-dioxide] cannot be ordered by inhibition at 1 µM: less than 50% for the first, less than 50% for the second.
